According to paper PMC11243320, “Tailoring Fibroblast-Activation Protein Targeting for Theranostics: A Comparative Preclinical Evaluation of the ^68Ga- and ^177Lu-Labeled Monomeric and Dimeric Fibroblast-Activation Protein Inhibitors DOTA.SA.FAPi and DOTAGA.(SA.FAPi)2” (Molecules, 2024):

Experiments:
human serum proteins = assay: Binding to human serum proteins, 30 min incubation; format: in vitro ADME; details: 37 °C
Procedure: (§1) The lipophilicity (LogDoctanol/PBS) and protein binding of the four radiotracers in human serum were determined as described in the Supplemental Data. […]
minimum conjugate amount. Briefly, the Ge-68/Ga-68 generator was eluted with 5 mL HCl 0.1 N and the eluate (~300 MBq) was loaded onto a cation exchange column (Strata-XC, Phenomenex). Gallium-68 was eluted with 700 μL of a mixture of 5.5 M NaCl / 0.1 M HCl (prepared by mixing 0.530 mL of ultrapure 30% aq. HCl and 49.5 mL of 5.5M NaCl) directly into a vial containing 400 μL of 1.8 M sodium acetate buffer (pH 4.3) for DOTA.SA.FAPi or 2 mL 1.45 M HEPES (pH 4.1) for DOTAGA.(SA.FAPi)2, 2 mL H2O (only in case of DOTA.SA.FAPi), 200 μL of EtOH, and 20 μg (approximately 20 nmol) of the conjugate, followed by Sep-Pak C-18 purification to remove uncomplexed gallium-68. The purified [68Ga]Ga-DOTA.SA.FAPi and [68Ga]Ga-DO,TAGA.(SA.FAPi)2 were eluted in 2.7 mL of a solution of 12% EtOH in PBS. […]
The 68Ga- and 177Lu-labelled radiotracers (20 pmol; 0.3 MBq) were incubated with commercially available human serum (0.5 mL) at 37 °C for 30 min. […] After careful separation of the two phases, the respective activities were measured in a gamma counter, followed by determination of the percentage of the radiotracer that bound […]

[1] = Lipophilicity LogD octanol/PBS pH 7.4, shake-flask method; format: physicochemical
Procedure: as §1
minimum conjugate amount. Briefly, the Ge-68/Ga-68 generator was eluted with 5 mL HCl 0.1 N and the eluate (~300 MBq) was loaded onto a cation exchange column (Strata-XC, Phenomenex). […]
After the labeling with gallium-68 or lutetium-177 and the quality control of the generated radiotracers, one equivalent of either natGa(NO3)3 or natLuCl3∙6H2O was added to the relevant radiolabeling solutions. […] The homogeneity was determined by HPLC, […]
Lipophilicity /Protein Binding Studies and Metabolic Stability in Human Serum The lipophilicity (LogD Octanol/PBS, pH 7.4) was estimated by the “shake –flask” method: the labelled conju-gate (20 pmol; 0.3 MBq) was added to a 1:1 mixture of 1-octanol (500 μL) and PBS (500 μL, pH 7.4). […] From each phase, an aliquot (50 μL) was pipetted out and measured in a gamma counter. […] The partition coefficient was calculated as the average log ratio of the radioactivity in the organic fraction and […]

Row | Compound | Percentage of human serum protein bound activity (human serum proteins) [%] | Lipophilicity LogDoctanol/PBS-pH7.4 [1]
1 | N#C[C@@H]1CC(F)(F)CN1C(=O)CNC(=O)c1ccnc2ccc(OCCCCNc3c(NCCNC(=O)CN4CCN(CC(=O)[O-])CCN(CC(=O)[O-])CCN(CC(=O)[O-])CC4)c(=O)c3=O)cc12.[177Lu+3] [[^177Lu]Lu-DOTA.SA.FAPi] | 9.9 ± 4.4 | −2.86 ± 0.06
2 | N#C[C@@H]1CC(F)(F)CN1C(=O)CNC(=O)c1ccnc2ccc(OCCCCNc3c(NCCNC(=O)CN4CCN(CC(=O)[O-])CCN(CC(=O)[O-])CCN(CC(=O)[O-])CC4)c(=O)c3=O)cc12.[68Ga+3] [[^68Ga]Ga-DOTA.SA.FAPi] | 10.6 ± 3.9 | −3.38 ± 0.03
